Data: patent publication US12235275B2, “Fluorescent substrates for poly(ADP-ribosyl) hydrolases” (The Board of Trustees of the University of Illinois, priority 2018, dated 2025)

How the values were obtained:
PARG [1] = target: T1, PARG (Homo sapiens, UniProt Q86W56); experiment: In vitro inhibition of PARG; format: biochemical; parameters: H. sapiens full length PARG; trigger factor (TF) fusion of the pColdTF vector; made in house; host or cells: Rosetta2 (DE3) E. coli; settings: dose-response, FIG. 4C
ARH3 [2] = target: T2, ARH3 (Homo sapiens, UniProt Q9NX46); experiment: In vitro inhibition of purified ARH3; format: biochemical; parameters: H. sapiens full length ARH3; His6 (N); made in house; host or cells: Rosetta2 (DE3) E. coli; settings: mixture of anomers
T2 sequence (Q9NX46 1-363): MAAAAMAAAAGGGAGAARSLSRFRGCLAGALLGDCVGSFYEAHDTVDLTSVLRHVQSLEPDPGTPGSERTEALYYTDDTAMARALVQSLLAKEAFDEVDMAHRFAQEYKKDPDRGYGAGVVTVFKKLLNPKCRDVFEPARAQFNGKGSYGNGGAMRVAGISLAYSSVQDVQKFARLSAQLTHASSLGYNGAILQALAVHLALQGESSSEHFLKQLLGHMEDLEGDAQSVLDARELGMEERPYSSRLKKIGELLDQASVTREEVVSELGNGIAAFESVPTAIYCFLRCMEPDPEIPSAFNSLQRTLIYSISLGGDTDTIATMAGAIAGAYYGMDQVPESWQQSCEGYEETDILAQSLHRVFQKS

[3] = target: T3, H. sapiens full length PARG (Homo sapiens, UniProt Q86W56); experiment: In vitro enzyme kinetics of substrate hydrolysis; format: biochemical; settings: hPARG
T3 construct: H. sapiens full length PARG; trigger factor (TF) fusion of the pColdTF vector; made in house; host or cells: Rosetta2 (DE3) E. coli

T. thermophila PARG = target: T4, T. thermophila PARG (Tetrahymena thermophila, UniProt I6L8L7); format: biochemical; settings: ttPARG
T4 construct: made in house; host or cells: Rosetta2 (DE3) E. coli
T4 sequence (I6L8L7 1-457): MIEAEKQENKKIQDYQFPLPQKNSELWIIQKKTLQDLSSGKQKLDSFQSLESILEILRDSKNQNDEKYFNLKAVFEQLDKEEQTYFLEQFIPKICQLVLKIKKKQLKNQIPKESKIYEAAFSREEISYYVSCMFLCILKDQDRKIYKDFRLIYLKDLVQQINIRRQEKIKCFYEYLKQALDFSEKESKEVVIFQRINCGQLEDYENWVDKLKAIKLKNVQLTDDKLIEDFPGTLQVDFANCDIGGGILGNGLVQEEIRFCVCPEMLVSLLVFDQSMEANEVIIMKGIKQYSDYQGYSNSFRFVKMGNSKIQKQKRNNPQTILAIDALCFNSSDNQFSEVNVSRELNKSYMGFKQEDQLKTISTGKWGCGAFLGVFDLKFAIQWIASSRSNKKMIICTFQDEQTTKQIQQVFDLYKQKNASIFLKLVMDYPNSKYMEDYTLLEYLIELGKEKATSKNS

ARH3 [4] = experiment: Substrate hydrolysis in lysate of ARH3 knockout U2OS cells; format: biochemical; settings: U2OS cell lysate, 200 μM substrate
Experimental: (§1) The ability of TFMU-IDPr to selectively report on ARH3 activity within the cellular milieu would be an important application of these probes. […] First, the hydrolysis of TFMU-IDPr was evaluated in cell lysate from a ARH3 knockout isogenic cell line pair derived from U2OS cells. […] Second, substrate processing was evaluated in the presence of the selective PARG inhibitor PDD00017273. […] Taken together, these experiments indicate that TFMU-IDPr is selectively cleaved by ARH3 in cell lysate, and TFMU-ADPr is cleaved only by ARH3 and PARG.
(§2) Cells were cultured in T75 flasks in appropriate medium. Cells were trypsinized, and scrapped (if necessary), and counted. 1×10^6 cells were harvested and washed with cold PBS 2×. Cell pellet was lysed by addition of activity lysis buffer (150 μL) and incubated on ice for 30 min. Lysate was clarified by centrifugation at 14,300×g at 4° C. for 10 min. Supernatant was transferred to chilled, empty 500 μL tube. Total protein content of lysate was evaluated by BCA assay. ARH3 expression level was determined by western blotting analysis. 5 μL lysate was added to well of 384-well black plate. 45 μL TFMU-IDPr (200 μM final) in reaction buffer was added to well. Reaction progress was monitored by fluorescent plate reader (ex 385 nm, cutoff 495, em 502 nm, 6 reads/well, high gain).

[5] = leaving groups pNP and TFMU; cited from earlier work
[6] = target: T5, H. sapiens full length ARH3 (Homo sapiens, UniProt Q9NX46); experiment: In vitro enzyme kinetics of substrate hydrolysis
T5 sequence (Q9NX46 1-363): T2 sequence (Q9NX46 1-363)

ARH3 [7] = experiment: Cell lysate ARH3 activity assay (survey of cell lines, TFMU-IDPr hydrolysis); format: biochemical; settings: MEF cell lysate, 200 μM TFMU-IDPr
Experimental: (§3) Cells were cultured in T75 flasks in appropriate medium. Cells were trypsinized, and scrapped (if necessary), and counted. 1×10^6 cells were harvested and washed with cold PBS 2×. Cell pellet was lysed by addition of activity lysis buffer (150 μL) and incubated on ice for 30 min. Lysate was clarified by centrifugation at 14,300×g at 4° C. for 10 min. Supernatant was transferred to chilled, empty 500 μL tube. Total protein content of lysate was evaluated by BCA assay. […] Reaction progress was monitored by fluorescent plate reader (ex 385 nm, cutoff 495, em 502 nm, 6 reads/well, high gain).

ARH3 [8] = target: T2, ARH3; experiment: as above; format: biochemical; parameters: endogenous in cells; settings: 200 μM TFMU-IDPr
Experimental: as §3

PARG [9] = target: T1, PARG; experiment: Substrate hydrolysis in U2OS cell lysate in presence of PARG inhibitor PDD00017273; format: biochemical; parameters: endogenous in cells; host or cells: U2OS (parental and ARH3 knockout) lysate
Experimental: as §1, §2

[10] = substrate: O=c1[nH]cnc2c1ncn2[C@@H]1OC(COP(=O)(O)OP(=O)(O)OCC2OC(Oc3ccc([N+](=O)[O-])cc3)[C@H](O)[C@@H]2O)[C@@H](O)[C@H]1O; experiment: purified protein, by the assay type; settings: other: hARH3
[11] = substrate: O=c1cc(C(F)(F)F)c2ccc(O[C@H]3O[C@H](COP(=O)(O)OP(=O)(O)OC[C@H]4O[C@@H](n5cnc6c(=O)[nH]cnc65)[C@H](O)[C@@H]4O)[C@@H](O)[C@H]3O)cc2o1; experiment: purified protein, by the assay type; settings: other: hARH3

T1 sequence (Q86W56 whole entry, the tested form may be a part): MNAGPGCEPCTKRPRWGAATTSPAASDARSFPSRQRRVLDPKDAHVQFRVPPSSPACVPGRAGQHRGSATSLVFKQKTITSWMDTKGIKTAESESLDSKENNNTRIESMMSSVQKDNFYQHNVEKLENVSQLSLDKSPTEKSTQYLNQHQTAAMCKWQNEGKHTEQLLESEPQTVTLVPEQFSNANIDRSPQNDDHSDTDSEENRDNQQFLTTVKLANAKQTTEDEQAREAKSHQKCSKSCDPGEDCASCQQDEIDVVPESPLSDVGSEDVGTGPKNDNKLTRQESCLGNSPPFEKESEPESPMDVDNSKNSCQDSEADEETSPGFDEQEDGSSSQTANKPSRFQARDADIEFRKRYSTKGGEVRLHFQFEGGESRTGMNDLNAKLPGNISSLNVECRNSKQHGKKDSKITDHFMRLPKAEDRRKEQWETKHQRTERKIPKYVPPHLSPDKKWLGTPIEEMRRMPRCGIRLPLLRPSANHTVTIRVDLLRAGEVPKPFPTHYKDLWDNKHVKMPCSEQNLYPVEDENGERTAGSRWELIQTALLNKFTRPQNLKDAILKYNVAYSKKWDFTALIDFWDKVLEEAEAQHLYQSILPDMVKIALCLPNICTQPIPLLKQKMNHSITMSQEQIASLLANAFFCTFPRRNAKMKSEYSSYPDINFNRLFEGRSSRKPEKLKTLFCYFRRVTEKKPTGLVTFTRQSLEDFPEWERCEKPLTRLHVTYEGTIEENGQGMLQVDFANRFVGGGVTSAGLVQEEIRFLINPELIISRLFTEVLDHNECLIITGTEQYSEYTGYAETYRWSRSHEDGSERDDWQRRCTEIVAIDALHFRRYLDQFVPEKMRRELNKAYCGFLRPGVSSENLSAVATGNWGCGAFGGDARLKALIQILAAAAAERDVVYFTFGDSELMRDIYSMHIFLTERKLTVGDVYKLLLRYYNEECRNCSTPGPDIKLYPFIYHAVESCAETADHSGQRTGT
T3 sequence (Q86W56 whole entry, the tested form may be a part): as above

Nc1ncnc2c1ncn2[C@@H]1O[C@H](COP(=O)(O)OP(=O)(O)OC[C@H]2NC[C@H](O)[C@@H]2O)[C@@H](O)[C@H]1O [ADP-HPD]
inhibition of PARG (PARG [1]): inhibits both PARG and ARH3

N=C(NCCCC(N)C(=O)O)NC1OC(COP(=O)(O)OP(=O)(O)OCC2OC(n3cnc4c(N)ncnc43)C(O)C2O)C(O)C1O (stereo not shown) [ADPr-Arg, ADP-ribosyl arginine]
Ki (ARH3 [2]): 18 ± 2 nM
inhibition of PARG (PARG [1]): markedly reduced activity against PARG

Nc1ncnc2c1ncn2[C@@H]1O[C@H](COP(=O)(O)OP(=O)(O)OC[C@H]2O[C@H](Oc3ccc4c(C(F)(F)F)cc(=O)oc4c3)[C@H](O)[C@@H]2O)[C@@H](O)[C@H]1O [TFMU-ADPr]
Vmax [3]: 0.84 ± 0.05 µmol/min/mg
Vmax (T. thermophila PARG): 28.6 ± 0.6 µmol/min/mg
effect of ARH3 knockout on substrate hydrolysis (ARH3 [4]): only partially decreased
pKa of the leaving group [5]: 7.26
Vmax ([6]; hARH3): 1.61 ± 0.02 µmol/min/mg

O=c1cc(C(F)(F)F)c2ccc(O[C@H]3O[C@H](COP(=O)(O)OP(=O)(O)OC[C@H]4O[C@@H](n5cnc6c(=O)[nH]cnc65)[C@H](O)[C@@H]4O)[C@@H](O)[C@H]3O)cc2o1 [TFMU-IDPr]
Km [3]: > 1500 µM
Km (T. thermophila PARG): > 1500 µM
ARH3 Activity (ARH3 [7]): 153 ± 38 milli-units/min/μg
effect of ARH3 knockout on substrate hydrolysis (ARH3 [4]): near complete loss
ARH3 Activity (ARH3 [8]; A549 cell lysate): 67 ± 23 milli-units/min/μg
ARH3 Activity (ARH3 [8]; D54 cell lysate): 147 ± 34 milli-units/min/μg
ARH3 Activity (ARH3 [8]; Daudi cell lysate): 27 ± 35 milli-units/min/μg
ARH3 Activity (ARH3 [8]; HCC38 cell lysate): 100 ± 19 milli-units/min/μg
ARH3 Activity (ARH3 [8]; HCC1937 cell lysate): 76 ± 4 milli-units/min/μg
ARH3 Activity (ARH3 [8]; HCT-116 cell lysate): 173 ± 17 milli-units/min/μg
ARH3 Activity (ARH3 [8]; HEK cell lysate): 192 ± 20 milli-units/min/μg
ARH3 Activity (ARH3 [8]; HFF-1 cell lysate): 105 ± 20 milli-units/min/μg
ARH3 Activity (ARH3 [8]; HeLa cell lysate): 159 ± 18 milli-units/min/μg
ARH3 Activity (ARH3 [8]; HepG2 cell lysate): 215 ± 19 milli-units/min/μg
ARH3 Activity (ARH3 [8]; Hs578t cell lysate): 170 ± 34 milli-units/min/μg
ARH3 Activity (ARH3 [8]; Jurkat cell lysate): 36 ± 7 milli-units/min/μg
ARH3 Activity (ARH3 [8]; MCF 7 cell lysate): 92 ± 40 milli-units/min/μg
ARH3 Activity (ARH3 [8]; MCF10A cell lysate (grown with cholera toxin)): −5 ± 12 milli-units/min/μg
ARH3 Activity (ARH3 [8]; MIA PaCa-2 cell lysate): 157 ± 25 milli-units/min/μg
ARH3 Activity (ARH3 [8]; SK-MEL-5 cell lysate): 87 ± 13 milli-units/min/μg
ARH3 Activity (ARH3 [8]; T98G cell lysate): 139 ± 7 milli-units/min/μg
ARH3 Activity (ARH3 [8]; U87 cell lysate): 290 ± 52 milli-units/min/μg
ARH3 Activity (ARH3 [8]; U937 cell lysate): 137 ± 34 milli-units/min/μg
selectivity for processing by ARH3 over PARG ([6]; human ARH3 over human PARG, FIG. 2C): confirmed
substrate hydrolysis in presence of PARG inhibitor PDD00017273 (PARG [9]; U2OS cell lysate, 200 μM TFMU-IDPr): unaffected

Nc1ncnc2c1ncn2[C@@H]1O[C@H](COP(=O)(O)OP(=O)(O)OC[C@H]2O[C@@H](Oc3ccc([N+](=O)[O-])cc3)[C@H](O)[C@@H]2O)[C@@H](O)[C@H]1O [pNP-ADPr]
Km (T. thermophila PARG): 210 ± 10 µM
Vmax (T. thermophila PARG): 16.9 ± 0.5 µmol/min/mg
stereoselectivity of hydrolysis, α versus β anomer (T. thermophila PARG; FIG. 5C): selectively hydrolyzed the α anomer of pNP-ADPr over the β anomer
pKa of the leaving group [5]: 7.15
Km ([6]; hARH3): 3.2 ± 0.6 µM
Vmax ([6]; hARH3): 1.7 ± 0.1 µmol/min/mg
stereoselectivity of hydrolysis, α versus β anomer ([6]; hARH3, FIG. 5D): selectively hydrolyzed the α anomer of pNP-ADPr over the β anomer

O=c1[nH]cnc2c1ncn2[C@@H]1OC(COP(=O)(O)OP(=O)(O)OCC2OC(Oc3ccc([N+](=O)[O-])cc3)[C@H](O)[C@@H]2O)[C@@H](O)[C@H]1O (stereo partly shown) [pNP-IDPr]
Km (T. thermophila PARG): > 1500 µM

PDD00017273 [reference compound]
inhibition of TFMU-ADPr hydrolysis (PARG [9]; ARH3−/− U2OS cell lysate, 200 μM TFMU-ADPr): completely abolished

B1: H. sapiens full length ARH3 (Homo sapiens) (protein)
chain: T2 sequence (Q9NX46 1-363)
Km [10]: 410 ± 20 µM
Vmax [10]: 5.2 µmol/min/mg
Km [11]: 312 ± 30 µM
Vmax [11]: 1.79 µmol/min/mg
